In the assay the target is T1, human OX2R (Homo sapiens, UniProt O43614).
T1 construct: expressed in transfected cells; host or cells: CHO (Chinese hamster ovary) cells grown under G418 selection
T1 sequence (O43614 1-444): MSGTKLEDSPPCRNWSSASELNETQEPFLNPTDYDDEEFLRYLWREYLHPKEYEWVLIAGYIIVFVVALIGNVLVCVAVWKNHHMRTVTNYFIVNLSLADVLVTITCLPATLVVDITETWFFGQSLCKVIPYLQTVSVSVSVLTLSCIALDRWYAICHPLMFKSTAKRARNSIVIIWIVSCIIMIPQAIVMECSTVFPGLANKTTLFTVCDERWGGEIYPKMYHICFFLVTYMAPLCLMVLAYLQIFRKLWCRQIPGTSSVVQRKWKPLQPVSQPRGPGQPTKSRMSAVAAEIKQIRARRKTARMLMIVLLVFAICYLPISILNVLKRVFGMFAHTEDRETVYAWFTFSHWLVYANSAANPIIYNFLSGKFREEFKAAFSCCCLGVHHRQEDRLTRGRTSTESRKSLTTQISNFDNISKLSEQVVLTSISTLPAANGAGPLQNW
Nature of the assay: IPOne (IP-1 accumulation) assay in CHO cells expressing human OX2R. It counts as cell-based. Particulars: for EC50: CHO cells expressing human OX2R, IP-One assay, 2 h incubation, four parameter logistic fit, read-out: OX2R Potency, EC50; for % of maximum agonist effect (relative to Orexin A): percent effect vs mean max effect of a reference compound at 1 uM (100% activity vs Orexin A), human OX2R. An excerpt: The utility of the compounds in accordance with the present invention as orexin receptor OX1R and/or OX2R agonists may be readily determined without undue experimentation by methodology well known in the art. Both the OX1R and/or OX2R G-coupled protein receptors (GPCRs) couple through the Gαq signaling pathway, which ultimately promotes calcium mobilization via inositol triphosphate (IP3) production. […] The utility of the compounds in accordance with the present invention as orexin receptor OX1R and/or OX2R agonists may be determined utilizing this assay.
In a typical experiment, the OX1 and OX2 receptor agonist activity is determined in accordance with the following general experimental method. Chinese hamster ovary (CHO) cells expressing human OX1R and/or the human OX2R were grown in Iscove's modified DMEM containing glutaMAX™, 1% G418, 100 U/mL penicillin, 100 μg/mL streptomycin and 10% heat-inactivated qualified fetal bovine serum (FBS). […] During this incubation, IP-one detection reagents were prepared (38:1:1 lysis buffer:D2:AB-cryptate reagents).
For each compound, data were fit to a four parameter logistic fit (ActivityBase software) and the EC50 was reported as the inflection point of the resulting curve. […] The intrinsic orexin receptor agonist activity of a compound which may be used in the present invention may be determined by these assays.

Turning to `C=CC[C@H](NC(=O)N(CC)C(c1cc(-c2cn3ccnc3c(OC)n2)c(OC)cn1)C(F)(F)F)C(F)(F)F` (mixture of isomers) [Example 5-1, 1-ethyl-1-(2,2,2-trifluoro-1-(5-methoxy-4-(8-methoxyimidazo[1,2-a]pyrazin-6-yl)pyridin-2-yl)ethyl)-3-((S)-1,1,1-trifluoropent-4-en-2-yl)urea], the concentration for a half-maximal effect (EC50) (as a rule, the midpoint of the concentration-response curve) came to 4.8 nM and the “% of maximum agonist effect (relative to Orexin A)” value is 100.4%.

Consider `CCN(C(=O)N[C@@H](C1CCCC(F)(F)C1)C(F)(F)F)[C@H](C)c1cccc(-c2cn3ccnc3c(OC)n2)c1` (single isomer, unassigned) [Example 3-1], for which the EC50 is 0.9 nM and the “% of maximum agonist effect (relative to Orexin A)” value is on record as 100.8%.

On to `CCN(C(=O)N[C@@H](CCC(F)(F)F)C(F)(F)F)C(C)c1cc(-c2cc(F)c3nccn3c2)c(Cl)cn1` (single isomer, unassigned) [Example 15-1], for which the EC50 is 5.8 nM and the “% of maximum agonist effect (relative to Orexin A)” value is on record as 100.5%.

For `CCN(C(=O)NC(C#N)C1CCCC(F)(F)C1)[C@H](C)c1cccc(-c2cn3ccnc3c(OC)n2)c1` (single isomer, unassigned) [Example 16], the EC50 was determined as 3.2 nM and the “% of maximum agonist effect (relative to Orexin A)” value was 100.8%.

As for `CCN(C(=O)NC(CO)C(F)(F)F)[C@H](C)c1cccc(-c2cn3ccnc3c(OC)n2)c1` (single isomer, unassigned) [Example 21], the EC50 was 50.9 nM and the “% of maximum agonist effect (relative to Orexin A)” value amounted to 96.3%.

For the molecule `CCN(C(=O)NC(COC(=O)N(C)C)C(F)(F)F)[C@H](C)c1cccc(-c2cn3ccnc3c(OC)n2)c1` (single isomer, unassigned) [Example 23], the EC50 came to 125 nM and the “% of maximum agonist effect (relative to Orexin A)” value came to 95.3%.

For `CCN(C(=O)NC(CC(=O)N(C)C)C(F)(F)F)[C@H](C)c1cccc(-c2cn3ccnc3c(OC)n2)c1` (single isomer, unassigned) [Example 24], the EC50 was found to be 144 nM and the “% of maximum agonist effect (relative to Orexin A)” value amounted to 89.1%.

For `CCN(C(=O)N[C@@H](CCC(F)(F)F)C(F)(F)F)[C@H](C)c1cccc(-c2ccc3nccn3c2)c1` [Example 1-1, 1-ethyl-3-((S)-1,1,1,5,5,5-hexafluoropentan-2-yl)-1-((R)-1-(3-(imidazo[1,2-a]pyridin-6-yl)phenyl)ethyl)urea], the EC50 worked out at 7.1 nM and the “% of maximum agonist effect (relative to Orexin A)” value was 98.4%.

For `CCN(C(=O)N[C@H](C)c1cccc(F)c1)[C@H](C)c1cccc(-c2cn3ccnc3c(OC)n2)c1` [Example 1-2, 1-ethyl-3-((R)-1-(3-fluorophenyl)ethyl)-1-((R)-1-(3-(8-methoxyimidazo[1,2-a]pyrazin-6-yl)phenyl)ethyl)urea], the EC50 came to 5.2 nM and the “% of maximum agonist effect (relative to Orexin A)” value turned out to be 98.3%.

On to `CCN(C(=O)N[C@@H]1CC[C@H](C(F)(F)F)C1)[C@H](C)c1cccc(-c2cn3ccnc3c(OC)n2)c1` [Example 1-3, 1-ethyl-1-((R)-1-(3-(8-methoxyimidazo[1,2-a]pyrazin-6-yl)phenyl)ethyl)-3-((1R,3S)-3-(trifluoromethyl)cyclopentyl)urea], for which the EC50 was 6.5 nM and the “% of maximum agonist effect (relative to Orexin A)” value stood at 99.9%.

For `CCN(C(=O)N[C@H](C)C1CCC(F)(F)CC1)[C@H](C)c1cccc(-c2cn3ccnc3c(OC)n2)c1` [Example 1-4, 3-((R)-1-(4,4-difluorocyclohexyl)ethyl)-1-ethyl-1-((R)-1-(3-(8-methoxyimidazo[1,2-a]pyrazin-6-yl)phenyl)ethyl)urea], the EC50 was found to be 6.9 nM and the “% of maximum agonist effect (relative to Orexin A)” value is 96.1%.

Turning to `CCN(C(=O)NCC(F)(F)F)[C@H](C)c1cccc(-c2cn3ccnc3c(OC)n2)c1` [Example 1-5, (R)-1-ethyl-1-(1-(3-(8-methoxyimidazo[1,2-a]pyrazin-6-yl)phenyl)ethyl)-3-(2,2,2-trifluoroethyl)urea], the EC50 came to 73.4 nM and the “% of maximum agonist effect (relative to Orexin A)” value amounted to 94.9%.

Regarding `CCN(C(=O)NC[C@H]1COCC(=O)N1)[C@H](C)c1cccc(-c2cn3ccnc3c(OC)n2)c1` [Example 1-6, 1-ethyl-1-((R)-1-(3-(8-methoxyimidazo[1,2-a]pyrazin-6-yl)phenyl)ethyl)-3-(((S)-5-oxomorpholin-3-yl)methyl)urea], the EC50 turned out to be 193 nM and the “% of maximum agonist effect (relative to Orexin A)” value was determined as 99.0%.

In the case of `CCN(C(=O)NCC(N(C)C)C(F)(F)F)[C@H](C)c1cccc(-c2cc(OC)c3nccn3c2)c1` (stereo partly drawn) [Example 1-7, 3-(2-(dimethylamino)-3,3,3-trifluoropropyl)-1-ethyl-1-((R)-1-(3-(8-methoxyimidazo[1,2-a]pyridin-6-yl)phenyl)ethyl)urea], the EC50 came to 17.5 nM and the “% of maximum agonist effect (relative to Orexin A)” value is listed as 97.3%.

As to `CC[C@H](CCC(F)(F)F)NC(=O)N(CC)Cc1ccc(OC)c(-c2cc(OC)c3nccn3c2)c1` [Example 1-8, (R)-1-ethyl-1-(4-methoxy-3-(8-methoxyimidazo[1,2-a]pyridin-6-yl)benzyl)-3-(6,6,6-trifluorohexan-3-yl)urea], the half-maximal effective concentration (EC50) was found to be 0.8 nM and the “% of maximum agonist effect (relative to Orexin A)” value is recorded as 96.5%.

In the case of `CCN(C(=O)NC(C)C1CCCC(F)(F)C1)[C@H](C)c1cccc(-c2cn3ccnc3c(OC)n2)c1` (stereo partly drawn) [Example 1-9, 3-(1-(3,3-difluorocyclohexyl)ethyl)-1-ethyl-1-((R)-1-(3-(8-methoxyimidazo[1,2-a]pyrazin-6-yl)phenyl)ethyl)urea], the EC50 turned out to be 0.6 nM and the “% of maximum agonist effect (relative to Orexin A)” value was determined as 99.8%.

As for `CCN(C(=O)NC(C#N)C1CCCC1)[C@H](C)c1cccc(-c2cn3ccnc3c(OC)n2)c1` (stereo partly drawn) [Example 1-10, 3-(cyano(cyclopentyl)methyl)-1-ethyl-1-((R)-1-(3-(8-methoxyimidazo[1,2-a]pyrazin-6-yl)phenyl)ethyl)urea], the concentration giving a half-maximal response (EC50) is 8.3 nM and the “% of maximum agonist effect (relative to Orexin A)” value came to 101.0%.

Regarding `CCOC(=O)CC(NC(=O)N(CC)[C@H](C)c1cccc(-c2cn3ccnc3c(OC)n2)c1)C(F)(F)F` (stereo partly drawn) [Example 1-11, ethyl 3-(3-ethyl-3-((R)-1-(3-(8-methoxyimidazo[1,2-a]pyrazin-6-yl)phenyl)ethyl)ureido)-4,4,4-trifluorobutanoate], the EC50 amounted to 20.1 nM and the “% of maximum agonist effect (relative to Orexin A)” value stood at 98.0%.

With `CCN(C(=O)NC(C#N)c1cccc(C(F)(F)F)c1)[C@H](C)c1cccc(-c2cn3ccnc3c(OC)n2)c1` (stereo partly drawn) [Example 1-12, 3-(cyano(3-(trifluoromethyl)phenyl)methyl)-1-ethyl-1-((R)-1-(3-(8-methoxyimidazo[1,2-a]pyrazin-6-yl)phenyl)ethyl)urea], the EC50 came out at 19.8 nM and the “% of maximum agonist effect (relative to Orexin A)” value came to 99.1%.

Regarding `CCN(C(=O)NC(CN(C)C)C(F)(F)F)[C@H](C)c1cccc(-c2cc(OC)n3nccc3c2)c1` (stereo partly drawn) [Example 1-13, 3-(3-(dimethylamino)-1,1,1-trifluoropropan-2-yl)-1-ethyl-1-((R)-1-(3-(7-methoxypyrazolo[1,5-a]pyridin-5-yl)phenyl)ethyl)urea], the EC50 came out at 146 nM and the “% of maximum agonist effect (relative to Orexin A)” value amounted to 80.7%.

With `CCN(C(=O)NC(CC#N)C(F)(F)F)[C@H](C)c1cccc(-c2cn3ccnc3c(OC)n2)c1` (stereo partly drawn) [Example 1-14, 3-(3-cyano-1,1,1-trifluoropropan-2-yl)-1-ethyl-1-((R)-1-(3-(8-methoxyimidazo[1,2-a]pyrazin-6-yl)phenyl)ethyl)urea], the EC50 is 18.5 nM and the “% of maximum agonist effect (relative to Orexin A)” value is on record as 101.3%.

On to `CCN(C(=O)NC(C1CN(C)C1)C(F)(F)F)[C@H](C)c1cccc(-c2cn3ccnc3c(OC)n2)c1` (stereo partly drawn) [Example 1-15, 1-ethyl-1-((R)-1-(3-(8-methoxyimidazo[1,2-a]pyrazin-6-yl)phenyl)ethyl)-3-(2,2,2-trifluoro-1-(1-methylazetidin-3-yl)ethyl)urea], for which the concentration giving a half-maximal response (EC50) worked out at 271 nM and the “% of maximum agonist effect (relative to Orexin A)” value was 99.7%.

As for `CCN(C(=O)NC(Cn1nccn1)C(F)(F)F)[C@H](C)c1cccc(-c2cn3ccnc3c(OC)n2)c1` (stereo partly drawn) [Example 1-16, 1-ethyl-1-((R)-1-(3-(8-methoxyimidazo[1,2-a]pyrazin-6-yl)phenyl)ethyl)-3-(1,1,1-trifluoro-3-(2H-1,2,3-triazol-2-yl)propan-2-yl)urea], the EC50 was 2.8 nM and the “% of maximum agonist effect (relative to Orexin A)” value is listed as 100.1%.

The values are drawn from patent US12692262B2, “Substituted ureas as orexin receptor agonists” (Merck Sharp & Dohme LLC, priority 2020, dated 2026).
